Experimental data: PubChem BioAssay (NCI)
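Each compound was tested at five concentrations against cells in 96-well plates for 48 hours. TGI: concentration producing complete growth inhibition.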

What was measured:
Assay in all cases: growth of human tumour cells (NCI), 48 h
BT-549 breast = test system: BT-549 breast
DU-145 prostate = test system: DU-145 prostate
HS 578T breast = test system: HS 578T breast
A498 renal = test system: A498 renal
CAKI-1 renal = test system: CAKI-1 renal
HL-60(TB) leukemia = test system: HL-60(TB) leukemia
UACC-62 melanoma = test system: UACC-62 melanoma
SF-295 CNS = test system: SF-295 CNS
HCC-2998 colon = test system: HCC-2998 colon
NCI-H522 lung = test system: NCI-H522 lung
NCI-H460 lung = test system: NCI-H460 lung
COLO 205 colon = test system: COLO 205 colon
U251 CNS = test system: U251 CNS
HCT-15 colon = test system: HCT-15 colon
MDA-MB-231 breast = test system: MDA-MB-231 breast
OVCAR-4 ovarian = test system: OVCAR-4 ovarian
NCI-H226 lung = test system: NCI-H226 lung
MDA-MB-435 = test system: MDA-MB-435
SN12C renal = test system: SN12C renal
HOP-62 NSCLC = test system: HOP-62 NSCLC
SNB-19 CNS = test system: SNB-19 CNS
RPMI-8226 leukemia = test system: RPMI-8226 leukemia
SK-MEL-5 melanoma = test system: SK-MEL-5 melanoma
SW-620 colon = test system: SW-620 colon
OVCAR-8 ovarian = test system: OVCAR-8 ovarian
IGROV1 ovarian = test system: IGROV1 ovarian
SNB-75 CNS = test system: SNB-75 CNS
CCRF-CEM leukemia = test system: CCRF-CEM leukemia
LOX IMVI melanoma = test system: LOX IMVI melanoma
SR leukemia = test system: SR leukemia
MALME-3M melanoma = test system: MALME-3M melanoma
HT29 colon = test system: HT29 colon
SF-539 CNS = test system: SF-539 CNS
786-0 renal = test system: 786-0 renal
RXF 393 renal = test system: RXF 393 renal
NCI/ADR-RES ovarian = test system: NCI/ADR-RES ovarian
M14 melanoma = test system: M14 melanoma
SK-MEL-2 melanoma = test system: SK-MEL-2 melanoma
EKVX NSCLC = test system: EKVX NSCLC
SK-MEL-28 melanoma = test system: SK-MEL-28 melanoma
OVCAR-5 ovarian = test system: OVCAR-5 ovarian
KM12 colon = test system: KM12 colon
SF-268 CNS = test system: SF-268 CNS
PC-3 prostate = test system: PC-3 prostate
T-47D breast = test system: T-47D breast
HCT-116 colon = test system: HCT-116 colon
MDA-N = test system: MDA-N
K-562 leukemia = test system: K-562 leukemia
UO-31 renal = test system: UO-31 renal
NCI-H23 lung = test system: NCI-H23 lung
MCF7 breast = test system: MCF7 breast
A549 NSCLC = test system: A549 NSCLC
UACC-257 melanoma = test system: UACC-257 melanoma
ACHN renal = test system: ACHN renal
MOLT-4 leukemia = test system: MOLT-4 leukemia
OVCAR-3 ovarian = test system: OVCAR-3 ovarian
HOP-92 NSCLC = test system: HOP-92 NSCLC

Measured: TGI

CC(=O)OCCc1cc2ccccc2oc1=O
> 100 µM: BT-549 breast | DU-145 prostate | HS 578T breast | A498 renal | CAKI-1 renal | HL-60(TB) leukemia | UACC-62 melanoma | SF-295 CNS | HCC-2998 colon | NCI-H522 lung | NCI-H460 lung | COLO 205 colon | U251 CNS | HCT-15 colon | MDA-MB-231 breast | OVCAR-4 ovarian | NCI-H226 lung | MDA-MB-435 | SN12C renal | HOP-62 NSCLC | SNB-19 CNS | RPMI-8226 leukemia | SK-MEL-5 melanoma | SW-620 colon | OVCAR-8 ovarian | IGROV1 ovarian | SNB-75 CNS | CCRF-CEM leukemia | LOX IMVI melanoma | SR leukemia | MALME-3M melanoma | HT29 colon | SF-539 CNS | 786-0 renal | RXF 393 renal | NCI/ADR-RES ovarian | M14 melanoma | SK-MEL-2 melanoma | EKVX NSCLC | SK-MEL-28 melanoma | OVCAR-5 ovarian | KM12 colon | SF-268 CNS | PC-3 prostate | T-47D breast | HCT-116 colon | MDA-N | K-562 leukemia | UO-31 renal | NCI-H23 lung | MCF7 breast | A549 NSCLC | UACC-257 melanoma | ACHN renal | MOLT-4 leukemia | OVCAR-3 ovarian | HOP-92 NSCLC
